Measurements taken from patent publication US10927136B2, “Phosphorus prodrugs of pyrazolo-substituted pyrimidine sGC stimulators” (Cyclerion Therapeutics, Inc., priority 2016, dated 2021).

How the values were obtained:
[1] = Ex-vivo rat intestinal fluid stability assay; type: in vitro ADME; parameters: half-life: dose or concentration left out as unconfirmed; conditions: 37° C.; for prodrug converted into its parent drug: after 30 minutes of incubation; for half-life: rat intestinal (jejunum) fluid, read-out: disappearance half-life (T1/2)
Procedure: Phosphate prodrugs disclosed herein were designed to be cleaved by alkaline phosphatase(s) that are present on the apical brush-border membranes of the intestine, after which the more hydrophobic parent compound is readily absorbed. Phosphatases are also present in the liver and in the systemic circulation. In order to test the speed of cleavage of the prodrug into the parent drug, […] solutions of each of the test compounds were incubated in rat intestinal (jejunum) fluid. Samples were taken at times=0, 5, 15, 30 and 60 min and the mixtures were quenched by the addition of acetonitrile containing an internal standard. Samples were analyzed by full scan LC/MS. The following protocol was used:
10 mM DMSO stock solutions were thawed or prepared for the positive control (Enalapril) and each test article. Internal standard (IS) crash solution in acetonitrile (ACN) with 20 ng/ml of Compound Z, depicted below, was prepared. Stock (250 uM) was prepared from 10 mM in 50/50 acetonitrile/H2O. Rat intestinal fluid vials were thawed in a water bath at rt.
In a 96-well, 1 ml plate, 48 uL of rat intestinal fluid was aliquoted in triplicate for each time point. The t0 (“0 min”) time point was prepared separately by adding 450 ul of IS crash solution to 48 ul of intestinal fluid, then adding 2 uL of test compound. 2 ul of the 250 uM substock was added to initiate the reaction at 5 min, 15 min, 30 min, and 60 min. The plate prepared in the above steps was covered with a plastic or foil seal and was set in the 37° C. incubator, lightly shaking. For each time point, 450 ul of IS crash solution was added to quench the reaction. The plates were centrifuged at 4000 RPM for 10 minutes at 4° C. 50 ul of supernatant was transferred into 50 ul of H2O and analyzed using LC/MS.
The disappearance of the prodrug and the conversion to the parent were monitored over time.

[2] = cited from earlier work
[3] = known; cited from earlier work
[4] = human microsomes, after 15 min; cited from earlier work

O=P(O)(O)OC1(CNc2nc(-c3cc(-c4ccon4)n(Cc4ccccc4F)n3)ncc2F)CCOCC1 [Compound I-3]
prodrug converted into its parent drug [1]: about 25%
prodrug remaining uncleaved ([1]; after 60 minutes of incubation): less than 10%

O=P(O)(O)OC(Cn1cncn1)(Cn1cncn1)c1ccc(F)cc1F [fosfluconazole]
human half-life (from published data) [2]: 90 to 150 min
prodrug remaining uncleaved ([1]; after 60 minutes of incubation): About 80%
half-life [1]: 211 min
cleavage to the parent drug in vivo [3]: known to cleave slowly to the parent drug in vivo

O=C1NC(c2ccccc2)(c2ccccc2)C(=O)N1COP(=O)(O)O [fosphenytoin]
human half-life (from published data) [2]: 8 to 15 min
prodrug converted into its parent drug [1]: More than 80%
prodrug remaining uncleaved ([1]; after 60 minutes of incubation): no prodrug could be detected
half-life [1]: 5 min
cleavage to the parent drug in vivo [3]: known to cleave to the parent drug quickly in vivo

COc1cc(Nc2ncc(F)c(Nc3ccc4c(n3)N(COP(=O)(O)O)C(=O)C(C)(C)O4)n2)cc(OC)c1OC [fostamatinib]
quantifiable fostamatinib in subjects ([2]; human clinical trials, oral dosing, after the 2-hour time point): no quantifiable fostamatinib was observed
prodrug converted into its parent drug [1]: About 50%
prodrug converted into its parent drug / cleaved ([1]; after 60 minutes of incubation): About 80%
half-life [1]: 34 min
cleavage to the parent drug in vivo [3]: known to cleave to the parent drug quickly in vivo
hydrolysis of prodrug [4]: fully hydrolized
